Data reported in paper PMC10485906, “Development of a Dihydroquinoline–Pyrazoline GluN2C/2D-Selective Negative Allosteric Modulator of the N-Methyl-D-aspartate Receptor” (ACS Chemical Neuroscience, 2023).
Like-named read-outs stand apart in the source and are kept apart here.

Key:
GluN1/GluN2D [1] = biological target: GluN1/GluN2D (Rattus norvegicus, UniProt P35439+Q62645); experiment: Whole-cell voltage-clamp recordings, HEK cells, GluN1/GluN2D (agonist dependence); format: cell-based; conditions: for Kd: from kON and kOFF
Chain of GluN1/GluN2D (Rattus norvegicus, UniProt P35439+Q62645) (Q62645 28-1323, other chains not shown): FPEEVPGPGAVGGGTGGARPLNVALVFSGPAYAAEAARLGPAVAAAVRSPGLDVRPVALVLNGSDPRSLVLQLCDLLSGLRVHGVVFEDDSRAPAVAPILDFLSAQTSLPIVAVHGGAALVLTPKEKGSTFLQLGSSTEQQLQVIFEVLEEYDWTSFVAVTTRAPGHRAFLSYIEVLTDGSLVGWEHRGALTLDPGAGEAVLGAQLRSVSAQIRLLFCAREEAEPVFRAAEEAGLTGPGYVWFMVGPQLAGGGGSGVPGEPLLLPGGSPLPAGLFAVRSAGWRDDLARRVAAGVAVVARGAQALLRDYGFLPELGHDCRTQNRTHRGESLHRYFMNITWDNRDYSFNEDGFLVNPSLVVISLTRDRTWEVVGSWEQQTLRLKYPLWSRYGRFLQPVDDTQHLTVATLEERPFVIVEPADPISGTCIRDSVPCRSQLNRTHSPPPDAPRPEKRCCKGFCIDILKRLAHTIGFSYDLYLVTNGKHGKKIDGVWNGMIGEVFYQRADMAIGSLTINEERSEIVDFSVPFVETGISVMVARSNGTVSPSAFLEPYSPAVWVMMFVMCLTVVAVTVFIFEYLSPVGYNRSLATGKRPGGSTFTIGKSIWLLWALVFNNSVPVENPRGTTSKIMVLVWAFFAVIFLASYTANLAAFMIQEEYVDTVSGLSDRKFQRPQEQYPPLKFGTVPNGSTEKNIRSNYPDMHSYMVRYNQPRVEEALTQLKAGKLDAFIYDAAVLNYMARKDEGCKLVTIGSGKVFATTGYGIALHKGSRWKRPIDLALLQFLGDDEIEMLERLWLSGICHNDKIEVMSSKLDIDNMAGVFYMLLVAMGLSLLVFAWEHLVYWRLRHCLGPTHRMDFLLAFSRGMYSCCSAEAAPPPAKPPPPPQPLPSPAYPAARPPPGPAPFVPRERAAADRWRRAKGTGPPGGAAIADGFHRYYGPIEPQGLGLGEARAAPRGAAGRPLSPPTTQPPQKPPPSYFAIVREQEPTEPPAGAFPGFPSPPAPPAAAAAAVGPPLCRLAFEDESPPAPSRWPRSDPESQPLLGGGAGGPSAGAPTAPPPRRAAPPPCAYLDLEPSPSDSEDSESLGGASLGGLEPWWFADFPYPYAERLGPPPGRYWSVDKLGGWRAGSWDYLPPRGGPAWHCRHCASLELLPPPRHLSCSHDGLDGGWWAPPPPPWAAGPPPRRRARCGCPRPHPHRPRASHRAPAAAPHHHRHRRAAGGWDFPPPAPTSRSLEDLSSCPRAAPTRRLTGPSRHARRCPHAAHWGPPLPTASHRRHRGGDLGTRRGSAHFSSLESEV
Text: We previously described the actions of the GluN2C/GluN2D-preferring negative allosteric modulator DQP-1105 as dependent on glutamate (but not glycine) binding, in that DQP-1105 affinity increases after GluN1/GluN2D NMDARs bind glutamate.[32] […] The concentration-dependent relaxation is indicative of an agonist-induced increase in potency that leads to re-equilibration of the inhibitor after agonist binding induces an increase in inhibitor affinity. We investigated the glutamate dependence of compound 2i (GluN1/GluN2D, Figure 4; GluN1/GluN2C, Figure S2), DQP-1105 (Figure S1), and compound (S)-2a (DQP-69;[33]Figure S3) using the same protocols.
We preincubated cells with glycine and the inhibitor 2i (DQP-997-74) and compared inhibitor potency during the peak and steady-state current responses to glutamate application. […] To investigate the time course of 2i inhibition, we fitted the relaxation of the current response with a single exponential function. If the current response time course reflects 2i binding, then the reciprocal of τinhibition should be linearly related to its concentration, with the slope equal to kON and intercept equal to kOFF. […] The deactivation of GluN1/GluN2D receptors (5.3 ± 0.2 s) was slowed by the presence of compound 2i when applied at concentrations of 0.1 μM (7.3 ± 0.3 s; p = 0.017) and 0.3 μM (10.5 ± 1.0 s; p = 0.002) but not at 0.03 μM (5.6 ± 0.3 s; p = 0.518; Figure 4E). […] This phenomenon was previously discovered for QNZ-46, a glutamate-dependent GluN2C/2D-selective inhibitor with a different structural core.[42] As proposed in that study, the prolonged deactivation may indicate that 2i slows a conformational change necessary for glutamate unbinding or 2i may need to unbind before glutamate can unbind.
In addition, we evaluated how glutamate dependence affects inhibition of responses to brief agonist applications similar to phasic glutamate release that occurs at synapses. To do so, we preincubated cells expressing GluN1/GluN2D receptors with the inhibitor 2i and then applied trains of five brief pulses of NMDA (which dissociates more rapidly than glutamate) and glycine from a pressurized micropipette to mimic repetitive synaptic transmission (Figure 4F). We measured the peak amplitude and compared the concentration–response curves for the inhibition of the first and last response (Figure 4G). The initial train of pulses in the absence of drug controls for systematic errors such as internalization of receptors.
To further evaluate whether 2i followed the law of mass action, we coapplied different concentrations of 2i with glutamate during the steady-state glutamate and glycine responses of GluN1/GluN2D receptors expressed in HEK cells (Figure 4H). […] We also fitted the onset and offset time course of the inhibition produced by compound 2i with a single exponential function (Figure 4J).
HEK293 cells (HEK, ATCC CRL-1573) were plated on glass coverslips pretreated with 0.1 mg/mL poly-D-lysine and cultured in Dulbecco’s modified Eagle medium (DMEM) plus Glutamax (GIBCO 10569-10) supplemented with 10% fetal bovine serum, 10 U/mL of penicillin, and 10 μg/mL of streptomycin at 37 °C and 5% CO2. The cells were transiently transfected with cDNA encoding rat GluN1, GluN2D, and eGFP at a ratio of 1:1:5 by using the calcium phosphate precipitation method.[48] After 24–48 h following the transfection, the cells were perfused with external recording solution that contained (in mM) 3 KCl, 150 NaCl, 0.01 EDTA, 1.0 CaCl2, 10 HEPES, and 22 D-mannitol (the pH was adjusted to 7.4 with NaOH). The patch electrodes (resistance 3–5 MΩ) were prepared from thin-walled glass micropipettes (TW150F-4, World Precision Instruments, Sarasota, FL) by a dual-stage glass micropipette puller (PC-10, Narishige, Tokyo, Japan) and filled with internal solution containing (in mM) 110 D-gluconate, 110 CsOH, 30 CsCl, 5 HEPES, 4 NaCl, 0.5 CaCl2, 2 MgCl2, 5 BAPTA, 2 NaATP, and 0.3 NaGTP. […]

MDCK-MDR1 = system: MDCK-MDR1; design: method as in PMID 23909910; conditions: cited from earlier work
GluN1/GluN2D [2] = biological target: GluN1/GluN2D (Rattus norvegicus, UniProt Q62645); design: GluN2B (NM_012574.1), GluN2C (NM_012575.3), and GluN2D (NM_022797.2) were provided by; expressed in transfected cells; host or cells: Xenopus laevis oocytes (cRNA injection); conditions: cited from earlier work
Chain of GluN1/GluN2D (Rattus norvegicus, UniProt Q62645) (Q62645 28-1323, other chains not shown): as above

[3] = HEK293, coapplication with glutamate
[4] = HEK293, inhibitor preapplied, linear regression of 1/τinhibition vs concentration

Row | SMILES | koff (GluN1/GluN2D [1]; [3]) | kon (GluN1/GluN2D [1]; [3]) | koff (GluN1/GluN2D [1]; [4]) | kon (GluN1/GluN2D [1]; [4]) | Kd (GluN1/GluN2D [1]; coapplication with glutamate) | IC50 (GluN1/GluN2D [1]; compound coapplied with glutamate during steady-state response, read-out: IC50 steady-state inhibition, coapplication) | IC50 (GluN1/GluN2D [1]; fifth of 5 brief NMDA (500 μM)/glycine (250 μM) pulses at 1 s intervals, read-out: IC50 pulse 5 (95% CI)) | IC50 (GluN1/GluN2D [1]; first of 5 brief NMDA (500 μM)/glycine (250 μM) pulses at 1 s intervals, read-out: IC50 pulse 1 (95% CI)) | Kd (GluN1/GluN2D [1]; inhibitor preapplied) | IC50 (GluN1/GluN2D [1]; peak current response to glutamate, inhibitor preapplied, read-out: IC50 peak (95% CI)) | IC50 (GluN1/GluN2D [1]; steady-state current response to glutamate, inhibitor preapplied, read-out: IC50 steady-state (95% CI)) | Papp (MDCK-MDR1; cell-membrane permeability) | P-glycoprotein (P-gp)-mediated efflux ratio (ER) (MDCK-MDR1) | I 30 μM / I control GluN2D (GluN1/GluN2D [2]; 30 μM, reproduced for comparison) | Selectivity 2A IC50 / 2D IC50 (GluN1/GluN2D [2]; GluN2D over GluN2A) | Selectivity 2B IC50 / 2D IC50 (GluN1/GluN2D [2]; GluN2D over GluN2B)
1 | O=C(O)CC(F)(F)C(=O)N1N=C(c2c(-c3ccc(Cl)cc3)c3ccccc3[nH]c2=O)CC1c1ccc(Cl)cc1 (stereo not shown) [2i] | 0.05 s⁻¹ | 210000 M⁻¹ s⁻¹ | 0.17 s⁻¹ | 400000 M⁻¹ s⁻¹ | 240 nM | 100 nM | 400 nM | 750 nM | 430 nM | 230 nM | 80 nM |  |  |  |  | 
2 | O=C(O)CCC(=O)N1N=C(c2c(-c3ccc(Cl)cc3)c3ccccc3[nH]c2=O)CC1c1ccc(Cl)cc1 (stereo not shown) [2a] |  |  |  |  |  |  |  |  |  |  |  | 0.47 × 10^–6 cm/s | 55 | 2.0 ± 1.0 (2,5) % | 48 fold | 50 fold
